Where two headings read alike, the source gives them in different places.
Tests used:
[1] = tested on: HIF-1α-mediated HRE transcriptional activity; assay: Assay for inhibition of HIF-1α-mediated transcriptional activity (HRE reporter assay); format: cell-based, human; conditions: Homo sapiens, HCT-116, HCT116 cells, 12 hours under hypoxia (1% O2), read-out: Inhibitory activity against HIF-1α (10 μM)
How it was run: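 HCT116 human colon cancer cells co-transfected with pGL3 luciferase reporter carrying six HRE copies from human VEGF plus Renilla control, then treated with 0–20 μM compound for 12 h under hypoxia (1% O2). Inhibition taken from dual-luciferase reporter activity in lysates.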

HIF-1α = target: T1, HIF-1α (Homo sapiens, UniProt Q16665); assay: Inhibition of hypoxia-induced HIF-1α accumulation, western blot in HCT116 cells; format: cell-based; conditions: HCT116, hypoxia 1% O2, 0-30 μM, 12 hours, FIG. 1
T1 construct: endogenous in cells; host or cells: HCT116 human colon cancer cells (ATCC #CCL-247)
T1 sequence (Q16665 whole entry): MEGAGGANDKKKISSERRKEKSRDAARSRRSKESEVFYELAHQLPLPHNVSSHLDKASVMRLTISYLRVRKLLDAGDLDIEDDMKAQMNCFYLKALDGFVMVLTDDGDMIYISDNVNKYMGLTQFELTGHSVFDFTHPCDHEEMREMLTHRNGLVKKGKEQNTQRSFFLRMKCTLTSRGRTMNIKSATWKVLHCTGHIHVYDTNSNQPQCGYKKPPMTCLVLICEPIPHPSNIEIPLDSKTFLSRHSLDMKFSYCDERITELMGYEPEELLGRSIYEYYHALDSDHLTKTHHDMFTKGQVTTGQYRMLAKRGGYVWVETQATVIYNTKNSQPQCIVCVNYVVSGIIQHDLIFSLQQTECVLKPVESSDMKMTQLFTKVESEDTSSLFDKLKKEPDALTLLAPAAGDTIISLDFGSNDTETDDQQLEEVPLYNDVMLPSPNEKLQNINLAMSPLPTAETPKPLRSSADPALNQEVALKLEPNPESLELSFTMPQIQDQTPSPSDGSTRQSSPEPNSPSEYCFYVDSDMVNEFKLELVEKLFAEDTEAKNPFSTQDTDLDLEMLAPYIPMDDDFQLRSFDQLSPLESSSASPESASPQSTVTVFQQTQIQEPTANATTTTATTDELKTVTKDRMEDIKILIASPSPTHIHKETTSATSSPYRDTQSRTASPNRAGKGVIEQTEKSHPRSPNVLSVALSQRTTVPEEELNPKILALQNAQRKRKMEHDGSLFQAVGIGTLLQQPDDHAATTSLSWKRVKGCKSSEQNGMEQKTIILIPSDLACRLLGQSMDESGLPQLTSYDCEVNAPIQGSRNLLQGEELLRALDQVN
Experimental: <Experiment 2> In Vitro Studies for Inhibition of Hypoxia-Induced HIF-1α Accumulation
Inhibition of HIF-1α accumulation by the compounds according to the present invention was determined in HCT116 human colon cancer cells. In particular, western blot analysis was used to identify the compounds, I-3, I-6, I-8, I-16, I-19, I-22˜I-24, and I-27˜I-36, which inhibited HIF-1α accumulation under hypoxia.
(§1) First, HCT116 human colon cancer cells (ATCC #CCL-247) were plated at the concentration of 2×10^5 cells/ml. After 24 hours, the cells were incubated under hypoxia (1% O2, 94% N2, and 5% CO2, expressed as 1% O2 in FIG. 1) for 4 hours in order to induce HIF-la accumulation. Cells were treated with the compounds at various concentrations (0, 3, 10, 20, and 30 μM) for 12 hours under hypoxia. The cells were then harvested, and lysed in RIPA buffer to obtain nuclear extracts. Cells grown at 20% O2 (normoxia) were used as control groups to compare HIF-1α-mediated gene expression under each condition. 30 μg of the nuclear extracts per sample was separated by SDS-PAGE (sodium dodecyl sulfate-polyacrylamide gel electrophoresis), and was then transferred to PVDF (polyvinylidene fluoride membrane) membranes. After membranes were probed with HIF-1α antibodies (R&D System), HIF-1α proteins were detected with HRP-conjugated secondary antibodies (Amersham-Pharmacia). GAPDH (Glyceraldehyde 3-phosphate dehydrogenase) was used as an internal control for loading in western blot analysis.

GAPDH = GAPDH expression level (internal control) in western blot, HCT116 cells; format: cell-based, human; conditions: HCT116, hypoxia 1% O2, 0-30 μM, 12 hours, FIG. 1
Experimental: as §1

[2] = tested on: Chick embryo chorioallantoic membrane; assay: CAM (chick embryo chorioallantoic membrane) assay; format: in vivo; conditions: 10-20 μg on coverslip, 2 days, FIG. 2
Experimental: CAM (Chick embryo chorioallantoic membrane) assay was conducted as an in vivo model to determine whether the compounds according to the present invention, I-3, I-6, I-19, and I-22, had anti-angiogenic effects or not. DMSO-treated groups were used as negative controls.
According to the present invention, CAM assay was performed as follows.
Fertilized eggs were incubated periodically rolling at 37° C. with 50% humidity for 2-3 days. When eggs were erected, approximately 3 ml of albumin was extracted from the sharp edge of the eggs using a syringe. The hole of the eggs was sealed with a tape to prevent from dryness and contamination, and the hole of the eggs was put down and incubated for 2 to 3 days. After punching a hole with 1.5 cm diameter in the round part of eggs, opaque membrane was removed carefully. The compounds (10-20 μg) according to the present invention were placed and spread on thermanox coverslip equally to dry, and then the hole in the round part of eggs put on the upper part of the fertilized eggs that vessels grew. The eggs were examined under the dissecting microscope and the results were given in FIG. 2, after covering the hole with a coverglass to protect it from contamination for 2 days.

[3] = tested on: HCT116 colon cancer cells; assay: In vivo anti-cancer activity by oral administration, HCT116 tumor in nude mice; design: species or system BALB/c nu/nu mice; conditions: for inhibitory effects on tumor growth (TGI results): 20 mg/kg oral once a day, 14 days; for inhibition in vivo at 20 mg/kg: Mus musculus
Experimental: <Example 4> In Vivo Anti-Cancer Activity of Compounds by Oral Administration
(§2) In vivo anti-cancer activity of the compounds according to the present invention, I-3, I-6, I-8, I-16, I-19, I-22, I-23, and I-24, was measured in mice to evaluate in vivo efficacy by oral administration. Specifically, the nude mice were divided into test groups and control groups, each consisting of 4 mice. In vivo efficacy was evaluated by measuring body weight, tumor volume, and tumor weight.
(§3) Female nude mice 6 weeks old (BALB/c nu/nu, Charles River) were bred in germ-free breeding rooms maintained at constant temperature and humidity. After the nude mice were anesthetized, HCT116 colon cancer cells were implanted at a count of […] cells/mouse into the rectum in BALB/c nu/nu mice and then the incisions were closed with surgical clips. The size of tumor was measured by a caliper. When the size of transplanted tumor reached to 50˜60 mm^3, the above compounds according to the present invention were administered. In more detail, after the above compounds in test groups were dissolved at concentration of 20 mg/kg in a solvent containing 80% of physiological saline, 10% of DMAC (dimethylacetamide), and 10% Tween 80 (hereinafter referred to as ‘Solvent A’), […] of dissolved compounds were orally administered once a day. Mice in control groups were treated with […] of Solvent A alone once daily.
(§4) Tumor volume and body weight were measured to identify in vivo anti-cancer activity of the compounds according to the present invention by repetitive oral administration. Tumor volume and tumor growth inhibition (TGI) in Table 2 were calculated according to the below Mathematic FIG. 1 and FIG. 2, respectively. Tumor growth inhibition was converted to a percentage in Table 2.

[4] = Body weight change and side effects during 14 days of oral treatment in nude mice; format: in vivo, BALB/c nu/nu mice
Experimental: as §2, §3, §4
Moreover, severe side effects and statistically significant changes of body weight in all mice treated compounds were not shown for 14 days, comparing to control groups treated with vehicle. (Table 3)

[5] = HCT-116, 72 h, day 3, 20 mg/kg oral once a day, read-out: TGI (tumor growth inhibition), tumor volume
[6] = HCT-116, 120 h, day 5, 20 mg/kg oral once a day, read-out: TGI (tumor growth inhibition), tumor volume
[7] = HCT-116, 168 h, day 7, 20 mg/kg oral once a day, read-out: TGI (tumor growth inhibition), tumor volume
[8] = HCT-116, 240 h, day 10, 20 mg/kg oral once a day, read-out: TGI (tumor growth inhibition), tumor volume
[9] = HCT-116, 288 h, day 12, 20 mg/kg oral once a day, read-out: TGI (tumor growth inhibition), tumor volume
[10] = HCT-116, 336 h, day 14, 20 mg/kg oral once a day, read-out: TGI (tumor growth inhibition), tumor volume
[11] = HCT-116, 336 h, day 14, 20 mg/kg oral once a day, read-out: TGI (tumor growth inhibition), tumor weight
[12] = day 3, 20 mg/kg oral once a day
[13] = day 5, 20 mg/kg oral once a day
[14] = day 7, 20 mg/kg oral once a day
[15] = day 10, 20 mg/kg oral once a day
[16] = day 12, 20 mg/kg oral once a day
[17] = day 14, 20 mg/kg oral once a day
[18] = day 0, 20 mg/kg oral once a day

Compound	inhibition at 10 µM [1]	HIF-1α degradation (HIF-1α)	GAPDH expression levels (GAPDH)	formation of vessels (anti-angiogenic effect) [2]	inhibition in vivo at 20 mg/kg [3, 5]	inhibition in vivo at 20 mg/kg [3, 6]	inhibition in vivo at 20 mg/kg [3, 7]	inhibition in vivo at 20 mg/kg [3, 8]	inhibition in vivo at 20 mg/kg [3, 9]	inhibition in vivo at 20 mg/kg [3, 10]	inhibition in vivo at 20 mg/kg [3, 11]	Tumor volume [3, 12]	Tumor volume [3, 13]	Tumor volume [3, 14]	Tumor volume [3, 15]	Tumor volume [3, 16]	Tumor volume [3, 17]	Tumor weight [3, 17]	Body weight change [4, 18]	Body weight change [4, 12]	other results
CN1CCN(C(=O)COc2ccc(C34CC5CC(CC(C5)C3)C4)cc2)CC1 [Compound I-3, 2-(4-(Adamantan-1-yl)phenoxy)-1-(4-methylpiperazin-1-yl)ethanone]	76 to 100%	promoted HIF-1α degradation	did not affect GAPDH expression levels	inhibited formation of vessels	33.2%	35%	36%	41.6%	44.1%	49.2%	51.5%	31.6 ± 5.0 mm^3	74.8 ± 11.7 mm^3	133.7 ± 14.8 mm^3	237.0 ± 24.9 mm^3	371.4 ± 36.2 mm^3	587.8 ± 48.4 mm^3	2074.2 ± 373.8 mg	100.0 ± 0.0%	103.2 ± 2.8%	inhibitory effects on HIF-1α accumulation (HIF-1α): significant inhibitory effects on HIF-1α accumulation; inhibitory effects on tumor growth (TGI results) [3]: significant inhibitory effects on tumor growth; Body weight change [4, 13]: 104.7 ± 3.0%; Body weight change [4, 14]: 105.1 ± 2.8%; Body weight change [4, 15]: 104.6 ± 2.7%; Body weight change [4, 16]: 103.1 ± 2.7%; Body weight change [4, 17]: 103.7 ± 4.0%
Cc1cc(C23CC4CC(CC(C4)C2)C3)ccc1OCC(=O)N1CCOCC1 [Compound I-6, 2-(4-(Adamantan-1-yl)-2-methylphenoxy)-1-morpholinoethanone]	76 to 100%	promoted HIF-1α degradation	did not affect GAPDH expression levels	inhibited formation of vessels	25%	24.1%	26.5%	28.4%	28.1%	28.4%	28.1%	25.5 ± 7.5 mm^3	70.1 ± 9.7 mm^3	128.4 ± 14.0 mm^3	186.6 ± 15.2 mm^3	322.5 ± 19.6 mm^3	476.9 ± 28.1 mm^3	1703.3 ± 252.2 mg	100.0 ± 0.0%	103.4 ± 0.6%	Body weight change [4, 13]: 103.6 ± 2.6%; Body weight change [4, 14]: 103.8 ± 3.3%; Body weight change [4, 15]: 105.0 ± 3.1%; Body weight change [4, 16]: 103.8 ± 2.9%; Body weight change [4, 17]: 102.4 ± 3.0%
C[N+](C)(C)CCNC(=O)CCOc1ccc(C23CC4CC(CC(C4)C2)C3)cc1.[I-] [Compound I-19, 2-(3-(4-(Adamantan-1-yl)phenoxy)propanamido)-N,N,N-trimethylethanaminium iodide]	26 to 50%	promoted HIF-1α degradation	did not affect GAPDH expression levels	inhibited formation of vessels	34.1%	36.4%	36.8%	37.7%	37.8%	39.2%	41.3%	22.4 ± 5.6 mm^3	58.8 ± 11.3 mm^3	110.4 ± 11.2 mm^3	162.3 ± 10.1 mm^3	278.8 ± 35.0 mm^3	404.7 ± 17.6 mm^3	1392.4 ± 153.0 mg	100.0 ± 0.0%	104.0 ± 1.6%	inhibitory effects on HIF-1α accumulation (HIF-1α): significant inhibitory effects on HIF-1α accumulation; inhibitory effects on tumor growth (TGI results) [3]: significant inhibitory effects on tumor growth; Body weight change [4, 13]: 104.7 ± 3.1%; Body weight change [4, 14]: 104.6 ± 4.0%; Body weight change [4, 15]: 105.1 ± 4.3%; Body weight change [4, 16]: 103.4 ± 3.5%; Body weight change [4, 17]: 102.2 ± 3.8%

— US9789114B2, “Compounds as HIF-1α inhibitors and manufacturing process thereof” (DONGGUK UNIVERSITY INDUSTRY-ACADEMIC COOPERATION FOUNDATION, priority 2011, dated 2017)
